Results reported in paper doi:10.1101/2021.10.07.463234v2 (biorxiv, 2021).
Values joined by “and” are separate entries in the source; they are usually repeats but may differ in a detail not shown here. Equal entries are not always repeated. Structures can show the parent of a compound that is named as a salt. Where two headings read alike, the source gives them in different places.

Experiments:
SARS-CoV-2 Mac1 [1] = biological target: T1, SARS-CoV-2 Mac1 (Severe acute respiratory syndrome coronavirus 2, UniProt P0DTD1); assay: biochemical; details: read-out: %inhibition
SARS-CoV-2 Mac1 [2] = biological target: T1, SARS-CoV-2 Mac1; assay: biochemical; details: for inhibition at 100 µM: read-out: %inhibition
human MacroD2 = human MacroD2 (Homo sapiens, UniProt A1Z1Q3); assay: ADPr-Glo luminescence ADP-ribosylhydrolase assay; type: biochemical
Chain of human MacroD2 (A1Z1Q3 whole entry): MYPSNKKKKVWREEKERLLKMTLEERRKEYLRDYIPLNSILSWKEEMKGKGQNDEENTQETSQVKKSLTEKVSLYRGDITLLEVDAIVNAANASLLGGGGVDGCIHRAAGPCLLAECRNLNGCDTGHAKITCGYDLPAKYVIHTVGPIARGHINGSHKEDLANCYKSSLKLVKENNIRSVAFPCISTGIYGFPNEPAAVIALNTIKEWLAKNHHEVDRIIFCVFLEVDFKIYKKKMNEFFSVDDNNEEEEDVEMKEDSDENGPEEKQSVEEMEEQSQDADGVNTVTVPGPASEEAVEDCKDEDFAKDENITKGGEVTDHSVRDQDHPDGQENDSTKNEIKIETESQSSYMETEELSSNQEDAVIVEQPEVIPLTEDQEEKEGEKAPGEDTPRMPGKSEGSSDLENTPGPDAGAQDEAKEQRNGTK

SARS-CoV-2 Mac1 [3] = biological target: T1, SARS-CoV-2 Mac1; assay: biochemical

| SMILES | inhibition at 100 µM (SARS-CoV-2 Mac1 [1]) [%] | other results |
| --- | --- | --- |
| Nc1nc(Cl)nc2c1ncn2[C@@H]1O[C@H](COP(=O)(O)OP(=O)(O)OP(=O)(O)O)[C@H](O)C1O (stereo partly drawn) [2-Chloroadenosine triphosphate tetrasodium] | 57 | – |
| NNCc1cccc(O)c1 [3-Hydroxybenzylhydrazine dihydrochloride] | 32 | – |
| Cc1cccc(C#Cc2ccccc2)n1 [6-Methyl-2-(phenylethynyl)pyridine hydrochloride] | 45 | – |
| Oc1ncnc2[nH]ncc12 [Allopurinol] | 37 | inhibition at 100 µM (SARS-CoV-2 Mac1 [2]): 0% |
| O=C1c2c(O)ccc(O)c2C(=O)c2c(NCCNCCO)ccc(NCCNCCO)c21 [Mitoxantrone] | 53 | – |
| O=C(Nc1cc(C(=O)Nc2ccc(S(=O)(=O)O)cc2S(=O)(=O)O)cc(C(=O)Nc2ccc(S(=O)(=O)O)cc2S(=O)(=O)O)c1)Nc1cc(C(=O)Nc2ccc(S(=O)(=O)O)cc2S(=O)(=O)O)cc(C(=O)Nc2ccc(S(=O)(=O)O)cc2S(=O)(=O)O)c1 [NF449 octasodium salt] | 54 | – |
| COc1cc2c(cc1OC)[C@@H](c1ccccc1)CN(C)CC2 [R(-)-SCH-12679 maleate] | 96 | – |
| Nc1c(S(=O)(=O)O)cc(Nc2ccc(Nc3nc(Cl)nc(Nc4cccc(S(=O)(=O)O)c4)n3)c(S(=O)(=O)O)c2)c2c1C(=O)c1ccccc1C2=O [Reactive Blue 2] | 100 | – |
| Nc1nc(SCc2ccc([N+](=O)[O-])cc2)c2ncn([C@@H]3O[C@H](CO)[C@@H](O)[C@H]3O)c2n1 [S-(4-Nitrobenzyl)-6-thioguanosine] | 35 | – |
| Cc1ccc(O)c(N=Nc2ccccc2)n1 [SIB 1757] | 79 | – |
| Cc1ccc(C(=O)Nc2ccc(S(=O)(=O)O)c3cc(S(=O)(=O)O)cc(S(=O)(=O)O)c23)cc1NC(=O)c1cccc(NC(=O)Nc2cccc(C(=O)Nc3cc(C(=O)Nc4ccc(S(=O)(=O)O)c5cc(S(=O)(=O)O)cc(S(=O)(=O)O)c45)ccc3C)c2)c1 [Suramin hexasodium] | 86 | – |
| N#CC(C#N)=Cc1ccc(O)c(O)c1 [Tyrphostin 23] | 52 | – |
| N#C/C(=C\c1ccc(O)c(O)c1)C(=O)NCc1ccccc1 [Tyrphostin AG 490] | 79 | – |
| N#C/C(=C\c1ccc(O)c(O)c1)C(=O)NCCCNC(=O)/C(C#N)=C/c1ccc(O)c(O)c1 [Tyrphostin AG 537] | 54 | – |
| Cc1nc(Nc2ncc(C(=O)Nc3c(C)cccc3Cl)s2)cc(N2CCN(CCO)CC2)n1 [dasatinib] | – | %inhibition (SARS-CoV-2 Mac1 [2]; 100 µM, inhibitor): 66.44% and 68.55%; inhibition at 100 µM (SARS-CoV-2 Mac1 [2]): 78.6%; IC50 (human MacroD2): > 2000 µM; IC50 (SARS-CoV-2 Mac1 [3]): 37.5 to 57.5 µM |
| NNc1nnc(NN)c2ccccc12 [dihydralazine] | – | IC50 (human MacroD2): 500 to 1830 µM; IC50 (SARS-CoV-2 Mac1 [3]): 485 to 757 µM |
